Measurements from patent publication US20140005163A1 (NOVARTIS AG, priority 2010, published 2014).
≈ marks a conversion by molar mass, not a printed value.

Assays:
Solubility at pH 6.8 = format: physicochemical; conditions: pH 6.8, aqueous buffer, thermodynamic from solid; read-out: solubility
In short: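 Following the procedure of Zhou et al. (2007), compound solubility was determined at pH 6.8.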

[1] = test system: PKB Ser473 phosphorylation in Rat1-myr-HA-p110 delta cells; assay: Reverse protein array assay, PKB Ser473 phosphorylation in Rat1-myr-p110 delta cells; format: cell-based; conditions: read-out: p-PKB IC50
In short: (§1)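 After at least 20 h of culture, the p110 isoform-transfected Rat1 lines receive compound in an 8-step dilution series, keeping DMSO at 0.2%, for 30 minutes. Cells are then lysed and lysates arrayed on chips for fluorescence detection of Ser473-phosphorylated PKB.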

PI3K gamma = biological target: T1, PI3K gamma (Homo sapiens, UniProt P48736); assay: PI3K gamma kinase assay (Kinase-Glo luminescence); format: biochemical
T1 construct: His tag (C); made in house; host or cells: baculovirus (pVL1393); Tn5 or TiniPro insect cells; construct from Roger Williams lab, MRC LMB
Method: In a more preferred assay, the kinase reaction is performed in a final volume of 10 μL per well of a low volume non binding CORNING, 384 well black plate (Cat. No. #3676). The final concentrations of ATP and phosphatidyl inositol (PI) in the assay are 1 μM and 10 μg/mL respectively. The reaction is started by the addition of ATP.
The components of the assay are added per well as follows:
[…] in 90% DMSO per well, in columns 1-20, 8 concentrations (1/3 and 1/3.33 serial dilution step) in single. • Low control: […] of 90% DMSO in half the wells of columns 23-24 (0.45% in final). • High control: […] of reference compound (e.g. compound of Example 7 in WO 2006/122806) in the other half of columns 23-24 (2.5 μM in final). • Standard: […] of reference compound as just mentioned diluted as the test compounds in columns 21-22 • 20 mL ‘buffer’ are prepared per assay: • 200 μL of 1M TRIS HCl pH7.5 (10 mM in final) • 60 μL of 1M MgCl2 (3 mM in final) • 500 μL of 2M NaCl (50 mM in final) • 100 μL of 10% CHAPS (0.05% in final) • 200 μL of 100 mM DTT (1 mM in final) • 18.94 mL of nanopure water • 10 mL ‘PI’ are prepared per assay: • 200 μL of 1 mg/ml L-alpha-Phosphatidylinositol (Liver Bovine, Avanti Polar Lipids Cat. No. 840042C MW=909.12) prepared in 3% OctylGlucoside (10 μg/ml in final) • 9.8 mL of ‘buffer’ • 10 mL ‘ATP’ are prepared per assay: • 6.7 μL of 3 mM stock of ATP giving a final concentration of 1 μM per well • 10 mL of ‘buffer’ • 2.5 mL of each PI3K construct are prepared per assay in ‘PI’ with the following final concentration: • 10 nM PI3K alfa EMV B1075 • 25 nM beta EMV BV949 • 10 nM delta EMV BV1060 • 150 nM gamma EMV BV950 • 5 μL of ‘PI/PI3K’ are added per well. • 5 μl ‘ATP’ are added per well to start the reaction. • The plates are then incubated at room temperature for 60 minutes (alfa, beta, delta) or 120 minutes (gamma). • The reaction is terminated by the addition of 10 μL Kinase-Glo (Promega Cat. No. #6714). • The assay plates are read after 10 minutes in Synergy 2 reader (BioTek, Vermont USA) with an integration time of 100 milliseconds and sensitivity set to 191. • Output: The High control is around 60'000 counts and the Low control is 30'000 or lower • This luminescence assay gives a useful Z′ ratio between 0.4 and 0.7
IC50 is determined by a four parameter curve fitting routine that comes along with “excel fit”. […] Alternatively, IC50 values are calculated using idbsXLfit model 204, which is a 4 parameter logistic model.

PI3K delta = biological target: T2, PI3K delta (Homo sapiens, UniProt O00329); assay: PI3K delta kinase assay (Kinase-Glo luminescence); format: biochemical
T2 construct: for the full-length p110-d subunit are generated and fused by overlapping PCR; p85(iSH2) fusion partner (see partner chain) (N); His tag (C); made in house; host or cells: baculovirus; Tn5 (Trichoplusia ni) or TiniPro insect cells
In short: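 ATP 1 μM, PI 10 μg/mL, PI3Kδ construct BV1060 10 nM (final); 10 mM Tris pH 7.5, 3 mM MgCl2, 50 mM NaCl, 0.05% CHAPS, 1 mM DTT; 60 min RT; Kinase-Glo stop, luminescence.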

PI3K beta = biological target: T3, PI3K beta (Homo sapiens, UniProt P42338); assay: PI3K beta kinase assay (Kinase-Glo luminescence); format: biochemical
T3 construct: for the full-length p110-b subunit are generated and fused by overlapping PCR; p85(iSH2) fusion partner (see partner chain) (N); His tag (C); made in house; host or cells: baculovirus; Tn5 (Trichoplusia ni) or TiniPro insect cells
In short: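 Kinase-Glo luminescence after a 60 min room-temperature reaction gives remaining ATP. The reaction holds 25 nM p85(iSH2)-p110β full-length His-tagged construct, 1 μM ATP, 10 μg/mL PI, and eight compound concentrations at 0.45% DMSO final. IC50 values come from a four-parameter logistic fit.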

[2] = test system: PKB Ser473 phosphorylation in Rat1-myr-HA-p110 alpha cells; assay: Reverse protein array assay, PKB Ser473 phosphorylation in Rat1-myr-p110 alpha cells; format: cell-based; conditions: 0.5 h, pAkt Ser473, 30 minutes compound incubation, read-out: p-PKB IC50
In short: as §1

[3] = test system: PKB Ser473 phosphorylation in Rat1-myr-HA-p110 beta cells; assay: Reverse protein array assay, PKB Ser473 phosphorylation in Rat1-myr-p110 beta cells; format: cell-based; conditions: 0.5 h, pAkt Ser473, 30 minutes incubation, read-out: p-PKB IC50
In short: as §1

PI3K alpha = biological target: T4, PI3K alpha (Homo sapiens, UniProt P42336); assay: PI3K alpha kinase assay (Kinase-Glo luminescence); format: biochemical
T4 construct: p85(iSH2) fusion partner (see partner chain) (N); His tag (C); made in house; host or cells: baculovirus; Tn5 (Trichoplusia ni) or TiniPro insect cells
In short: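 Compounds are titrated at 8 concentrations and mixed with PI3Kα protein (EMV B1075, 10 nM) in phosphatidylinositol (10 μg/mL). ATP at 1 μM starts the 60-minute room-temperature reaction, which is stopped with Kinase-Glo before luminescence reading. Four-parameter curve fitting gives IC50.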

T3 sequence (P42338 with tags, fused parts or gaps limits assumed): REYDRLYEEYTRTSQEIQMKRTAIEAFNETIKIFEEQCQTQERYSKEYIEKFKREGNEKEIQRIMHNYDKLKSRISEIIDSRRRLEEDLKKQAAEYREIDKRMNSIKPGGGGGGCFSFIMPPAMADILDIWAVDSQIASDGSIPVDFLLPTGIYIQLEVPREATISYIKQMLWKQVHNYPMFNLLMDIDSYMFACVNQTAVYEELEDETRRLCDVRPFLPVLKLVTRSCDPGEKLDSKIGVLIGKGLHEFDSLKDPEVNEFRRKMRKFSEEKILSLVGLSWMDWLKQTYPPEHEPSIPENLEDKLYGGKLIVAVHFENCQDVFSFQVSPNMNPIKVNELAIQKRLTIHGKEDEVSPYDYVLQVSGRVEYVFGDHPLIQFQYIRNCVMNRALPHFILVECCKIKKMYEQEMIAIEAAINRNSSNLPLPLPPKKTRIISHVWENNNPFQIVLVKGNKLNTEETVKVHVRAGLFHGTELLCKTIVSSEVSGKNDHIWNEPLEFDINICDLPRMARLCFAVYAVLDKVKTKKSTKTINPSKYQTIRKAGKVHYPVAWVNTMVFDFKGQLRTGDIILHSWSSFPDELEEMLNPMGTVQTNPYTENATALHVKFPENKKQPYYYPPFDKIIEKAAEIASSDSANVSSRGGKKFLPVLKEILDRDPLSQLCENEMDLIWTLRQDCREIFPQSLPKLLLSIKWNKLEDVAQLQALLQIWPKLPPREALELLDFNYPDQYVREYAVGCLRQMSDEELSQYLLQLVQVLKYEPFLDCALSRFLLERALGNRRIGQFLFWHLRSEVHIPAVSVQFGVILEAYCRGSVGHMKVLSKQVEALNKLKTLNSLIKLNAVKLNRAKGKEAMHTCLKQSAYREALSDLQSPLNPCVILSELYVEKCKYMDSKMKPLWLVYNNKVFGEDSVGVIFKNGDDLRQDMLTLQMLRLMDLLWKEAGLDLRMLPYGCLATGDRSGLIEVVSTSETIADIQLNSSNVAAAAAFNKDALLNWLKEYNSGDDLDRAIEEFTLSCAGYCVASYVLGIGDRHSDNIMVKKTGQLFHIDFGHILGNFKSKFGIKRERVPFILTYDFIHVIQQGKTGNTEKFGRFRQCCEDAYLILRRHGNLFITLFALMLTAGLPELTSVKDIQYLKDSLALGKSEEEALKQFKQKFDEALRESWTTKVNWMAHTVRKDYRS
T4 sequence (P42336 with tags, fused parts or gaps limits assumed): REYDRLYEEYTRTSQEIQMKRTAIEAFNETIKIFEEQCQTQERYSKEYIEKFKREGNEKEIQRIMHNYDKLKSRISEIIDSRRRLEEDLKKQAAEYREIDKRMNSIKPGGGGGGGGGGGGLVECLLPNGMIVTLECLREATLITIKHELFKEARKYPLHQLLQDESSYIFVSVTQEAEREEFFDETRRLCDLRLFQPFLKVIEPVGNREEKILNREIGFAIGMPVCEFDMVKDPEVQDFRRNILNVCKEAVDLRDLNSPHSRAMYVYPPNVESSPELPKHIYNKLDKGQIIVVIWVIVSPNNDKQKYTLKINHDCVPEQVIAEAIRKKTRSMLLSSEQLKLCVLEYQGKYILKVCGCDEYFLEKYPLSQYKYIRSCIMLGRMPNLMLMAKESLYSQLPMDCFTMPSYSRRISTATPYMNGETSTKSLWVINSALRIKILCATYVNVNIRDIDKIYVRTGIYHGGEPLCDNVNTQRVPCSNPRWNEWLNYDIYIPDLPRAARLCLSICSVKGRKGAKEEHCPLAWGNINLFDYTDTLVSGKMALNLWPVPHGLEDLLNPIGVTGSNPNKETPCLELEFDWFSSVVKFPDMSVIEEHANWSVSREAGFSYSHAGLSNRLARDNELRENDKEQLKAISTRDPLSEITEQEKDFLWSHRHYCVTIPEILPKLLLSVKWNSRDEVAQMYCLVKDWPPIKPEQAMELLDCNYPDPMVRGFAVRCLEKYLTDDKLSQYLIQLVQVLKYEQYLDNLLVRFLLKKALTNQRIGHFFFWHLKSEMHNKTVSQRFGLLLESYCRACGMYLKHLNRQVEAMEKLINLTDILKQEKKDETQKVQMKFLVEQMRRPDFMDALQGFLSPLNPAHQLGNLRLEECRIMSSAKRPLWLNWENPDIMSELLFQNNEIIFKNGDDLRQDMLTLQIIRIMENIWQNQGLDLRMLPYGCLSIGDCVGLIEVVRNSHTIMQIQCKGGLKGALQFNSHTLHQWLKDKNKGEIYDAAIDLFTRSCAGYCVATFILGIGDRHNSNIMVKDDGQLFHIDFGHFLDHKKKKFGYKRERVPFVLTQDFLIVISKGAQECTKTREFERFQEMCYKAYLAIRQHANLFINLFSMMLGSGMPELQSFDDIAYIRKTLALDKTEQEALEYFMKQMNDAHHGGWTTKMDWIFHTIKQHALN
T1 sequence (P48736 144-1102 limits assumed): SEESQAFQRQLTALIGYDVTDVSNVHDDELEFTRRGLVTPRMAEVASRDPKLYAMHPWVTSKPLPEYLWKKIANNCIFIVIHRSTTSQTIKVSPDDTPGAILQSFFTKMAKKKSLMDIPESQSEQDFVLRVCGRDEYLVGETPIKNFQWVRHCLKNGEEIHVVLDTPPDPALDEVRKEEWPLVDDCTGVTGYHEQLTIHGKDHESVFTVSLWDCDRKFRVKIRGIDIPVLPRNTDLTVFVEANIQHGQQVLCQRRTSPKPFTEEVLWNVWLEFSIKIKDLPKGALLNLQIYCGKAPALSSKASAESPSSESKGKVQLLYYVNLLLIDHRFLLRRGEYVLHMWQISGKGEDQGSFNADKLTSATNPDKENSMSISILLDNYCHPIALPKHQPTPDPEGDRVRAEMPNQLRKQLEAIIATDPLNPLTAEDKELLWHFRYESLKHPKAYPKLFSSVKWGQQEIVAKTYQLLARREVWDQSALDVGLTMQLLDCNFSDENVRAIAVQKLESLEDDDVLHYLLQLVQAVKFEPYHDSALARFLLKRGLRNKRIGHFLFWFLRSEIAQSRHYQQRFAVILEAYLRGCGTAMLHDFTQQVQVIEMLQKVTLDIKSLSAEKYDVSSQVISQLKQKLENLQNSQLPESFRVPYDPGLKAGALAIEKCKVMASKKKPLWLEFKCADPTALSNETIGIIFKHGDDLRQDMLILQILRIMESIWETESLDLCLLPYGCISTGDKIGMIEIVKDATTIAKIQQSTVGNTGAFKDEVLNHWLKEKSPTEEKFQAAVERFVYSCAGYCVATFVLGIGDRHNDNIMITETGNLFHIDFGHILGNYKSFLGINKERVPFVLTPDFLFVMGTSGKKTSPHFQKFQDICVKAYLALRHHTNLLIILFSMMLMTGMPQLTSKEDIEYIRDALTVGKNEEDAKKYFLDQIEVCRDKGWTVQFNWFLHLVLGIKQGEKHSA
T2 sequence (O00329 with tags, fused parts or gaps limits assumed): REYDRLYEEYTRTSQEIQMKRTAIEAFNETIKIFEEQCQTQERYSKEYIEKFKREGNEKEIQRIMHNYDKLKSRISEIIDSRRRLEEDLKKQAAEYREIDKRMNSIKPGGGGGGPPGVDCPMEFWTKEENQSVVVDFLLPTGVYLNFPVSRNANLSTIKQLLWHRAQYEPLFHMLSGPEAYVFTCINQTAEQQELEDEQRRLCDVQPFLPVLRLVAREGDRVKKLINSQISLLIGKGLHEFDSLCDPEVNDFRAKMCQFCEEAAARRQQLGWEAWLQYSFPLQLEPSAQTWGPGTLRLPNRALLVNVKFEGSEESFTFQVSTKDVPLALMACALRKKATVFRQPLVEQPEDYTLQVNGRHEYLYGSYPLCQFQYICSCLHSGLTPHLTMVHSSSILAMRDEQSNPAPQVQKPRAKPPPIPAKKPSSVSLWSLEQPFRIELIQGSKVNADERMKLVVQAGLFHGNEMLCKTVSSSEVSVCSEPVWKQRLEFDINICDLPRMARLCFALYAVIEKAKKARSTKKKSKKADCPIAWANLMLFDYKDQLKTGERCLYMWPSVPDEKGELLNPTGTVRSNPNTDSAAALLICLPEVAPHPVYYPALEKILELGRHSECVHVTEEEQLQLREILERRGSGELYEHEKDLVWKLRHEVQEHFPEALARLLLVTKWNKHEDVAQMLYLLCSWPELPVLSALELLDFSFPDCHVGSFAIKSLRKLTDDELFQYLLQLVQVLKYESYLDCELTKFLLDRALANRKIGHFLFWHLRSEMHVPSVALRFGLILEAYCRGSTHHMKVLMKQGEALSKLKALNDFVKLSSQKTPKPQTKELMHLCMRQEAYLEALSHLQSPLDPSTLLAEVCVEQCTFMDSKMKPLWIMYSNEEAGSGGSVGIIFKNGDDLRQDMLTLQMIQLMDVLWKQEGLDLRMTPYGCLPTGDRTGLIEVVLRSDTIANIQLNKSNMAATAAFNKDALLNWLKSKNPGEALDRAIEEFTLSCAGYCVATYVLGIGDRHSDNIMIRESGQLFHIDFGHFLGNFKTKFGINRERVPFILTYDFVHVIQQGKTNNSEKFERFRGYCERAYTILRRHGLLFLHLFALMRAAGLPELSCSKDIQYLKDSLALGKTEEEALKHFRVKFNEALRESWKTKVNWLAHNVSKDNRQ

Row | Structure (SMILES) | solubility (Solubility at pH 6.8) [µg/mL] | IC50 [1] [nM] | IC50 (PI3K gamma) [nM] | IC50 (PI3K delta) [nM] | IC50 (PI3K beta) [nM] | IC50 [2] [nM] | IC50 [3] [nM] | IC50 (PI3K alpha) [nM]
1 | COc1ccc(-c2ccc3ncc4c(c3c2)n(-c2c(C)cnn2C)c(=O)n4C)cn1 [Example 2.1, 1-(2,4-Dimethyl-2H-pyrazol-3-yl)-8-(6-methoxy-pyridin-3-yl)-3-methyl-1,3-dihydro-imidazo[4,5-c]quinolin-2-one] | 8 (≈ 20 µM) | 946 | 140 | 432 | 241 | 552 | 795 | 94
2 | Cc1nn(C)c(C)c1-n1c(=O)n(C)c2cnc3ccc(-c4cccc(S(=O)(=O)N(C)C)c4)cc3c21 [Example 53.2, N,N-Dimethyl-3-[3-methyl-2-oxo-1-(1,3,5-trimethyl-1H-pyrazol-4-yl)-2,3-dihydro-1H-imidazo[4,5-c]quinolin-8-yl]-benzenesulfonamide] | 40 (≈ 81.5 µM) | 672 | 183 | 93 | 843 | 375 | 634 | 94
3 | COc1ccc(-c2ccc3ncc4c(c3c2)n(-c2c(C)cnn2C)c(=O)n4C)cc1OC [Example 1.7, 8-(3,4-Dimethoxy-phenyl)-1-(2,4-dimethyl-2H-pyrazol-3-yl)-3-methyl-1,3-dihydro-imidazo[4,5-c]quinolin-2-one] | 6 (≈ 14 µM) | 249 | 120 | 169 | 152 | 82 | 147 | 59

Further compounds by falling IC50 (PI3K gamma), results first:

Row | solubility (Solubility at pH 6.8) [µg/mL] | IC50 [1] [nM] | IC50 (PI3K gamma) [nM] | IC50 (PI3K delta) [nM] | IC50 (PI3K beta) [nM] | IC50 [2] [nM] | IC50 [3] [nM] | IC50 (PI3K alpha) [nM] | Structure (SMILES)
4 | > 384 | 1630 | 273 | 292 | 799 | 594 | 937 | 136 | Cc1nn(C)c(C)c1-n1c(=O)n(C)c2cnc3ccc(-c4cccnc4)cc3c21 [Example 10.1, 3-Methyl-8-pyridin-3-yl-1-(1,3,5-trimethyl-1H-pyrazol-4-yl)-1,3-dihydro-imidazo[4,5-c]quinolin-2-one]
5 | 300 (≈ 700 µM) | – | 257 | 129 | 228 | 304 | – | 82 | CCOc1cncc(-c2ccc3ncc4c(c3c2)n(-c2c(C)nn(C)c2C)c(=O)n4C)c1 [Example 56.3, 8-(5-Ethoxy-pyridin-3-yl)-3-methyl-1-(1,3,5-trimethyl-1H-pyrazol-4-yl)-1,3-dihydro-imidazo[4,5-c]quinolin-2-one]
